Assay results taken from patent US20090075951A1, “Methods and Reagents for the Treatment of Inflammatory Disorders” (CombinatoRx, Inc., priority 2003, published 2009).
“And” between values parts separate entries of the source, which are not always exact repeats. Equal entries are not always repeated. Where two headings read alike, the source gives them in different places.

Key:
[1] = tested on: TNFα secretion from LPS stimulated white blood cells from human buffy coat; test: TNFα secretion assay, LPS stimulation; details: for percent inhibition of TNFα secretion: LPS
Protocol: (§1) Various concentrations of each test compound were added at the time of stimulation. […] After the plate was washed with 0.1% Tween 20/PBS, an HRP-luminescent substrate was added to each well and light intensity measured using a LJL Analyst plate luminometer.

[2] = tested on: TNFα secretion from PMA/ionomycin stimulated white blood cells from human buffy coat; test: TNFα secretion assay, PMA/ionomycin stimulation
Protocol: as §1

cytokine secretion = test: Suppression of cytokine secretion in vitro by individual tricyclic compounds
Protocol: Individual tricyclic compounds were tested for their ability to suppress cytokine secretion in vitro.

[3] = Homo sapiens, read-out: TNFα LPS percent inhibition
[4] = read-out: TNFα PI percent inhibition
[5] = read-out: IL-1β LPS percent inhibition
[6] = read-out: IL-2 PI percent inhibition
[7] = Clomipramine μM: 57.00, 28.50, 14.25, 7.13, 3.56, 1.78, 0.89, 0.45, 0.22, 0.11, 0.06, 0.03
[8] = Homo sapiens, read-out: TNFα LPS percent inhibition, 0.03 μM
[9] = Homo sapiens, read-out: TNFα LPS percent inhibition, […]
[10] = read-out: TNFα PI percent inhibition, 0.03 μM
[11] = read-out: TNFα PI percent inhibition, […]
[12] = Amoxapine μM: 32.00, 16.00, 8.00, 4.00, 2.00, 1.00, 0.50, 0.25, 0.13, 0.06, 0.03, 0.02

Question: For `Cc1cc2c(s1)Nc1ccccc1N=C2N1CCN(C)CC1` [Olanzapine], which inhibition at 0.03 µM [1, 3] is on record?
Answer: 0%

Question: And the inhibition at 0.06 µM [1, 3]?
Answer: 0%

Question: What about the inhibition at 0.5 µM [1, 3] of the same compound?
Answer: 0%

Question: What about the inhibition at 1 µM [1, 3] of the same compound?
Answer: 0%

Question: What about the inhibition at 2 µM [1, 3] of the same compound?
Answer: 0%

Question: And the inhibition at 4 µM [1, 3]?
Answer: 0%

Question: And the inhibition at 8 µM [1, 3]?
Answer: 0%

Question: What about the inhibition at 16 µM [1, 3] of the same compound?
Answer: 0%

Question: What about the inhibition at 32 µM [1, 3] of the same compound?
Answer: 0%

Question: What about the inhibition at 64 µM [1, 3] of the same compound?
Answer: 10%

Question: And the inhibition at 0.03 µM [2, 4]?
Answer: 0%

Question: What about the inhibition at 0.06 µM [2, 4] of the same compound?
Answer: 0%

Question: What about the inhibition at 0.5 µM [2, 4] of the same compound?
Answer: 0%

Question: And the inhibition at 1 µM [2, 4]?
Answer: 0%

Question: What about the inhibition at 2 µM [2, 4] of the same compound?
Answer: 0%

Question: What about the inhibition at 4 µM [2, 4] of the same compound?
Answer: 0%

Question: What about the inhibition at 8 µM [2, 4] of the same compound?
Answer: 0%

Question: What about the inhibition at 16 µM [2, 4] of the same compound?
Answer: 13%

Question: And the inhibition at 32 µM [2, 4]?
Answer: 27%

Question: What about the inhibition at 64 µM [2, 4] of the same compound?
Answer: 54%

Question: What about the inhibition at 0.03 µM (cytokine secretion; [5]) of the same compound?
Answer: 0%

Question: And the inhibition at 0.06 µM (cytokine secretion; [5])?
Answer: 0%

Question: What about the inhibition at 0.5 µM (cytokine secretion; [5]) of the same compound?
Answer: 2%

Question: What about the inhibition at 1 µM (cytokine secretion; [5]) of the same compound?
Answer: 5%

Question: And the inhibition at 2 µM (cytokine secretion; [5])?
Answer: 3%

Question: And the inhibition at 4 µM (cytokine secretion; [5])?
Answer: 3%

Question: And the inhibition at 8 µM (cytokine secretion; [5])?
Answer: 7%

Question: And the inhibition at 16 µM (cytokine secretion; [5])?
Answer: 21%

Question: And the inhibition at 32 µM (cytokine secretion; [5])?
Answer: 41%

Question: And the inhibition at 64 µM (cytokine secretion; [5])?
Answer: 40%

Question: And the inhibition at 0.03 µM (cytokine secretion; [6])?
Answer: 0%

Question: What about the inhibition at 0.06 µM (cytokine secretion; [6]) of the same compound?
Answer: 0%

Question: And the inhibition at 0.5 µM (cytokine secretion; [6])?
Answer: 0%

Question: What about the inhibition at 1 µM (cytokine secretion; [6]) of the same compound?
Answer: 0%

Question: And the inhibition at 2 µM (cytokine secretion; [6])?
Answer: 0%

Question: And the inhibition at 4 µM (cytokine secretion; [6])?
Answer: 0%

Question: What about the inhibition at 8 µM (cytokine secretion; [6]) of the same compound?
Answer: 0%

Question: And the inhibition at 16 µM (cytokine secretion; [6])?
Answer: 0%

Question: And the inhibition at 32 µM (cytokine secretion; [6])?
Answer: 0%

Question: What about the inhibition at 64 µM (cytokine secretion; [6]) of the same compound?
Answer: 0%

Question: What does the source list for `CN(C)CCCN1c2ccccc2CCc2ccc(Cl)cc21` [Clomipramine, clomipramine]?
Answer: percent inhibition of TNFα secretion ([1]; Prednisolone 1 μM, Clomipramine μM r5-r13: 0,0.45,0.89,1.8,3.6,7.1,14,28,57): 69.3%; IL-1β LPS, percent inhibition relative to untreated controls (cytokine secretion; [7]): 3% and 0%; IL-2 PI, percent inhibition relative to untreated controls (cytokine secretion; [7]): 5% and 0%; TNFα LPS, percent inhibition relative to untreated controls (cytokine secretion; [7]): 0%; TNFα PI, percent inhibition relative to untreated controls (cytokine secretion; [7]): 0%

Question: Which inhibition at 0.03 µM [1, 8] does the source give for `CNCC[C@@H](Oc1ccccc1C)c1ccccc1` [Tomoxetine, tomoxetine] here?
Answer: 0%

Question: And the inhibition at 0.07 µM ([1]; Homo sapiens, read-out: TNFα LPS percent inhibition, 0.07 μM)?
Answer: 1%

Question: What about the inhibition at 69 µM [1, 9] of the same compound?
Answer: 0%

Question: What about the inhibition at 0.03 µM [2, 10] of the same compound?
Answer: 0%

Question: And the inhibition at 0.07 µM ([2]; read-out: TNFα PI percent inhibition, 0.07 μM)?
Answer: 4%

Question: What about the inhibition at 69 µM [2, 11] of the same compound?
Answer: 72%

Question: What about the inhibition at 0.03 µM (cytokine secretion; [5]) of the same compound?
Answer: 0%

Question: And the inhibition at 0.07 µM (cytokine secretion; [5])?
Answer: 0%

Question: What about the inhibition at 69 µM (cytokine secretion; [5]) of the same compound?
Answer: 0%

Question: And the inhibition at 0.03 µM (cytokine secretion; [6])?
Answer: 0%

Question: What about the inhibition at 0.07 µM (cytokine secretion; [6]) of the same compound?
Answer: 1%

Question: What about the inhibition at 69 µM (cytokine secretion; [6]) of the same compound?
Answer: 79%

Question: What does the source list for `Clc1ccc2c(c1)C(N1CCNCC1)=Nc1ccccc1O2` [Amoxapine, amoxapine]?
Answer: percent inhibition of TNFα secretion ([1]; Prednisolone 0.5 μM, Amoxapine μM r5-r13: 0,0.25,0.5,1,2,4,8,16,32): 68.1%; IL-1β LPS, percent inhibition relative to untreated controls (cytokine secretion; [12]): 5% and 0%; IL-2 PI, percent inhibition relative to untreated controls (cytokine secretion; [12]): 0%; TNFα LPS, percent inhibition relative to untreated controls (cytokine secretion; [12]): 0%; TNFα PI, percent inhibition relative to untreated controls (cytokine secretion; [12]): 4% and 0%

Question: How did the inhibition at 0.03 µM [1, 8] turn out when `CN(C)CCCN1c2ccccc2CCc2ccccc21` [Imipramine, imipramine] was run?
Answer: 0%

Question: And the inhibition at 0.06 µM ([1]; Homo sapiens, read-out: TNFα LPS percent inhibition, 0.06 μM)?
Answer: 10%

Question: What about the inhibition at 63 µM [1, 9] of the same compound?
Answer: 3%

Question: And the inhibition at 0.03 µM [2, 10]?
Answer: 0%

Question: What about the inhibition at 0.06 µM ([2]; read-out: TNFα PI percent inhibition, 0.06 μM) of the same compound?
Answer: 0%

Question: What about the inhibition at 63 µM [2, 11] of the same compound?
Answer: 92%

Question: And the inhibition at 0.03 µM (cytokine secretion; [5])?
Answer: 0%

Question: And the inhibition at 0.06 µM (cytokine secretion; [5])?
Answer: 0%

Question: What about the inhibition at 63 µM (cytokine secretion; [5]) of the same compound?
Answer: 13%

Question: And the inhibition at 0.03 µM (cytokine secretion; [6])?
Answer: 0%

Question: What about the inhibition at 0.06 µM (cytokine secretion; [6]) of the same compound?
Answer: 19%

Question: And the inhibition at 63 µM (cytokine secretion; [6])?
Answer: 85%
